Here are results for one compound from patent EP4567103A1, “USE OF PYRUVATE FOR POTENTIATING NK CELLS” (LVMH Recherche, priority 2023, dated 2025).

pEC50: −log10 of the molar value.

The subject of test [1] is NK cells. Nature of the test: Intracellular ATP concentration in NK cells, luciferase-based assay (CellTiter-Glo 2.0). Format: cell-based. The conditions noted are these: Homo sapiens; isolated NK cells, 30,000 cells per well, pyruvate 0.01 to 10mM, 4 hours; read-out: EC50 for the intracellular ATP production (the pyruvate concentration at which the ATP production is half-maximal). The method, then: (§1) Peripheral blood samples from healthy subjects were obtained from the French blood bank (Etablissement Français du sang, Lyon, France).
(§2) Human PBMCs were separated from peripheral blood by Ficoll® gradient centrifugation (Eurobio Laboratoires & AbCys) at room temperature. The PBMCs were kept at 4°C in complete medium overnight.
NK cells (CD56^Dim CD3) were isolated using an NK Cell Isolation Kit (Miltenyi Biotec) following the manufacturer's instructions, and then sorted (BD FACS ARIA II, purity > 99%, the following mAbs from eBioscience, BD Biosciences, Biolegend or Cell Signalling Technology were used: anti-CD56 (NCAM16.2), and anti-CD3 (UCHT1)). Freshly sorted NK cells were left to recover from the sorting overnight at 37°C with a non-activating dose of IL-15 (1 ng/ml, Peprotech) in RPMI 1640 medium additionally containing 10% FBS, 2mM HEPES, 2mM glutamine, 1mM pyruvate (sodium pyruvate) and 1% penicillin/streptomycin (HCL Technologies). […]
The intracellular ATP concentration at each concentration of pyruvate was measured using a luciferase-based assay following the manufacturer's instructions (CellTiter-Glo® 2.0 Cell Viability Assay and NAD/NADH-Glo Assay, Promega Corporation, Madison, WI). Luminescence was measured using a Tristar luminometer (Berthold).

The subject of test [2] is NK cells. Briefly: Cytotoxicity of NK cells against K562 NanoLuc-expressing target cells (bioluminescence lysis assay). Format: cell-based. The conditions noted are these: Homo sapiens; pyruvate 0.01 to 10 mM for 3 hours, then co-cultured for 4 hours with K562 NanoLuc-expressing target cells; read-out: EC50 for the cytotoxicity of the NK cells (the pyruvate concentration at which the cytotoxicity is half-maximal). The method, then:
as §1, §2
NK cells (CD56^Dim CD3) were isolated using an NK Cell Isolation Kit (Miltenyi Biotec) following the manufacturer's instructions, and then sorted (BD FACS ARIA II, purity > 99%, the following mAbs from eBioscience, BD Biosciences, Biolegend or Cell Signalling Technology were used: anti-CD56 (NCAM16.2), and anti-CD3 (UCHT1)). […]
NK cells were prepared as in Example 1, and were cultured in the absence or in the presence of pyruvate at varying concentrations (0.01 to 10 mM) for 3 hours and then co-cultured for 4 hours with K562 NanoLuc®-expressing target cells. The supernatant was collected and bioluminescence was measured using a Tristar Instrument luminometer (Berthold) after addition of Furimazin (the substrate of NanoLuc). The percentage of cell lysis were calculated as explained in Hayek, S. et al., SLAS Discov. […]

Turning to `CC(=O)C(=O)O` [pyruvate], the pEC50 in test [1] is 3.30; in test [2], 3.59.
